Values quoted from earlier work, collected in US12453819B2, “Injector” (Antares Pharma, Inc., priority 2018, dated 2025).
Counter-ions that a name gives are not always drawn.

SMILES | log P | solubility in water: parts of water dissolving one part (as described in USP (soluble)) | solubility in alcohol (descriptive term) | solubility in chloroform (descriptive term) | solubility in ether (descriptive term) | solubility in water (descriptive term)
C=CCN1CC[C@]23c4c5ccc(O)c4O[C@H]2C(=O)CC[C@@]3(O)[C@H]1C5 [Naloxone, 17-allyl-4,5α-epoxy, 3-14-dihydroxymorphine-6-one] | 1.92 |  |  |  |  | 
C=CCN1CC[C@]23c4c5ccc(O)c4O[C@H]2C(=O)CC[C@@]3(O)[C@H]1C5 [Naloxone hydrochloride] |  | 10-30 parts of water | slightly soluble | practically insoluble | practically insoluble | soluble
